Assay results as given in publication PMC10384639, “Increased In Vivo Exposure of N-(4-Hydroxyphenyl) Retinamide (4-HPR) to Achieve Plasma Concentrations Effective against Dengue Virus” (Pharmaceutics, 2023).
Several values for one entry are separate records, joined by “and”; a condition that tells them apart may be missing. Equal values may be shown once. Read-outs that look alike come from different tables or passages of the source.

What was measured:
[1] = Single-dose IV PK of 4-HPR in mice with and without ABT; type: in vivo, male C57Bl/6 mice; settings: for half-life / AUC(0-inf) / clearance / Vd: plasma; for half-life: read-out: Apparent t1/2 (converted); for AUC(0-inf): read-out: Plasma AUC0-inf; for Vd: read-out: Plasma VSS
Procedure: C57Bl/6 mice (22.6–28.7 g) having access to food and water ad libitum throughout the pre- and post-dose sampling period were dosed with 4-HPR either orally by gavage (2–10 mL/kg, depending upon formulation) or IV by bolus injection into the lateral tail vein (50 μL/animal, 2 mL/kg), and blood samples were collected up to 49 h post-dose by either submandibular bleed or terminal cardiac puncture (n = 3–5 mice per timepoint for each formulation) with a maximum of four samples from each mouse. Blood samples were mixed with heparin, potassium fluoride and complete protease inhibitor cocktail (Roche Diagnostics, Mannheim, Germany), centrifuged and supernatant plasma was removed and stored at −80 °C until analysis by LC-MS. Specifics of formulations used in PK experiments are detailed in Supplementary Table S1.
For in vivo CYP inhibition experiments, repeat oral doses of ABT (50 mg/kg b.i.d commencing 4 h before 4-HPR administration, 5 mL/kg by gavage) were administered according to a regimen shown to maintain ongoing CYP inhibition. Blood samples were collected from ABT-treated mice for up to 72 h after dosing 4-HPR.
For 4-HPR quantification, proteins were precipitated from plasma samples using acetonitrile (2-fold volume ratio) prior to analysis using a Waters Acquity Ultra-High Performance Liquid Chromatography (UHPLC) system coupled to a Waters Xevo TQ MS system (Waters Corporation, Milford, MA, USA). Chromatographic separation was performed using a C8 reverse phase column (Ascentis Express RP C8, 50 × 2.1 mm, 2.7 μm, Merck KGaA, Darmstadt, Germany) and a 3 μL injection volume. Gradient elution (methanol-water gradient with 0.05% formic acid) was performed at a flow rate of 0.4 mL/min, cycle time of 4 min, with detection by positive electrospray ionisation in multiple-reaction monitoring mode. Then, 4-HPR standards (10,000–0.5 ng/mL) were prepared in blank plasma, with diazepam as an internal standard (10 μL of 5 μg/mL in 50% acetonitrile/water per sample). For 4-HPR, the retention time was 2.97 min, m/z transition 392.23 > 161.15, cone voltage 30 V and CID 20 V.
The dose administered to each mouse was calculated on the basis of the pre-dose body weight, the volume of formulation administered, and the 4-HPR concentration in the formulation. The plasma concentration versus time profile was defined by the average plasma concentration at each sample time, and PK parameters were calculated using non-compartmental methods (PKSolver Version 2.0) using the average dose administered to the dosing group.
To illustrate the differences in 4-HPR plasma exposure profiles that would be expected in mice upon repeat-dose administration (b.i.d, 10 h/14 h at 20 mg/kg) of the different formulations, profiles were simulated using a simple compartmental PK approach. Initially, a linear 2-compartment model was fitted (PKSolver, Version 2.0) to the mean plasma concentration-time profile obtained after bolus IV administration of 4-HPR. The parameter estimates thus obtained (i.e., V1, k10, k12 and k21—see Supplementary Table S2) were considered to define the systemic disposition of 4-HPR and were fixed during simulation of the oral profiles. Oral profiles were simulated using a differential equation-based compartmental model scripted in Berkeley Madonna (version 8.3.1.8). Systemic disposition parameters were fixed as described above, under the assumption that the post-absorption distribution and elimination of 4-HPR was independent of the formulation administered. Bioavailability was fixed at the value determined by non-compartmental analysis, and the first order rate constant for compound absorption was manually varied until the simulated concentration-time profile was in close agreement with the experimental concentration-time data obtained after single-dose administration of pre-dispersed lipid formulation. […] These were obtained by setting the bioavailability (F) to the value determined for each formulation by non-compartmental analysis.

[2] = Equilibrium solubility of 4-HPR in excipients and lipid-based formulations; type: physicochemical
Procedure: Excipients were weighed directly into glass vials at the indicated concentrations, mixed thoroughly, then transferred to Eppendorf tubes and loaded with an excess of 4-HPR. Formulations were then heated to 37 °C, vortexed extensively (initially every hour) and agitated with a stirrer and incubated at 37 °C in a shaking incubator. Periodically (every 1–3 days), undissolved drug was removed from the formulation by centrifugation (20 min at 2100× g, 37 °C) and 20 mg of supernatant was transferred to new tubes for quantification by UHPLC (stored at −20 °C), with the remaining formulation vortexed and agitated vigorously incubated at 37 °C in a shaking incubator until the next sampling. Samples were dissolved in 1 mL 1:1 chloroform:methanol, then diluted 1:100 in acetonitrile.
In this case, the UHPLC assay used a Shimadzu Nexera X2 UHPLC system (Shimadzu Corporation, Kyoto, Japan), with chromatographic separation on a C18 reverse phase column (Kinetex 2.6 μm C18 100 Å, LC Column 50 × 2.1 mm, Phenomenex Inc., Torrance, CA, USA) at 30 °C, with samples stored at 10 °C in the autosampler until injection (3 μL volume). Isocratic elution (79.95% acetonitrile, 19.95% H2O, 0.1% formic acid) was performed at a flow rate of 0.3 mL/min, with absorbance measured by the photodiode array detector. Then, 4-HPR standards (50–0.521 μg/mL) were created by successive serial dilution of a 50 μg/mL stock standard in acetonitrile, with area under curve at absorbance of 365 nm used to generate a standard curve using LabSolutions software V.5.82.

[3] = Plasma protein binding by Rapid Equilibrium Dialysis; type: in vitro ADME; settings: 37 °C, corrected for dilution; for % Bound / Fraction Unbound 4-HPR: RED 24 h; for fraction unbound at 24 h, 2000 ng/mL: pH 7.4, RED 24 h, read-out: % Bound
Procedure: (§1) Protein binding of 4-HPR was assessed in human (pooled, Innovative Research Inc., Novi, MI, USA) and mouse (collected in-house from male C57BL6 mice) plasma via Rapid Equilibrium Dialysis (RED) using pre-saturated dialysis units as previously. Briefly, RED inserts were pre-saturated overnight with 400 ng/mL 4-HPR in PBS, after which solutions were removed and discarded, and 300 µL aliquots of diluted human or mouse plasma (10% v/v in pH 7.4 PBS) containing 4-HPR (2000 ng/mL) were added to the donor chamber of the RED inserts (n = 4/matrix) and dialysed against 500 µL of PBS (containing 40 ng/mL 4-HPR). During the 24 h dialysis period, the RED system was sealed with a gas impermeable film, and the plate was maintained at 37 °C under ambient atmosphere in an orbital plate shaker set at 800 rpm (ThermoMixer C; Eppendorf, Hamburg, Germany). At the end of the dialysis period, aliquots were taken from each donor and dialysate chamber to obtain post-dialysis measures of the total and unbound 4-HPR concentrations, respectively. The measured pH of pre- and post-dialysis donor matrix and dialysate buffer was within pH 7.4 ± 0.1.
Donor and dialysate samples were processed and analysed using a matrix matching approach, and all samples were stored frozen at −80 °C until analysis by LC-MS. Compound binding was assessed on the basis of the measured concentrations in dialysate and donor samples at the end of the dialysis period, assuming that the system was at steady state by 24 h. As the binding assay was performed using diluted plasma, data were corrected for the dilution factor to give a binding value for neat plasma via an established approach which accounts for the shift in equilibria that occurs with protein dilution.

[4] = Stability in diluted plasma matrix; type: in vitro ADME; settings: diluted human plasma (10% v/v in pH 7.4 PBS)
Procedure: as §1

[5] = Stability in diluted plasma matrix; type: in vitro ADME; settings: diluted mouse plasma (10% v/v in pH 7.4 PBS)
DENV [6] = settings: cited from earlier work
DENV [7] = test system: DENV; set-up: method as in PMID 24903662; settings: b.i.d 20 mg/kg 4-HPR, lethal ADE DENV infection; cited from earlier work
ZIKV = test system: ZIKV; set-up: method as in PMID 33439253; settings: read-out: In vitro EC50; cited from earlier work
DENV2 = test system: DENV2; set-up: method as in PMID 25313218; settings: b.i.d 180 mg/kg, AG129 mouse viremia model; cited from earlier work
[8] = male, C57Bl/6, mouse, in vivo, iv
[9] = male, C57Bl/6, mouse, iv, 2 mg/kg, single-dose 2 mg/kg IV, +ABT (50 mg/kg, b.i.d)
[10] = male, C57Bl/6, mouse, iv, 2 mg/kg, single-dose 2 mg/kg IV, −ABT

CC1=C(/C=C/C(C)=C/C=C/C(C)=C/C(=O)Nc2ccc(O)cc2)C(C)(C)CCC1 [4-HPR, N-(4-hydroxyphenyl) retinamide]
Fold increase in exposure with ABT treatment after IV dosage ([1]; IV 2 mg/kg, +ABT versus −ABT): 0.2 fold | V1 (2-compartment model estimate) ([1]; fit to IV data, −ABT): 0.233 L/kg | k21 (2-compartment model estimate) ([1]; fit to IV data, −ABT): 0.561 h⁻¹ | k10 (2-compartment model estimate) [1, 8]: 1.20 h⁻¹ | k12 (2-compartment model estimate) [1, 8]: 5.42 h⁻¹ | half-life [1, 9]: 726 min | AUC(0-inf) [1, 9]: 24.5 µM·h | clearance ([1]; male, C57Bl/6, mouse, iv, 2 mg/kg, single-dose 2 mg/kg IV, +ABT (50 mg/kg, b.i.d), read-out: Plasma CL): 3.6 mL/min/kg | Vd [1, 9]: 3.2 L/kg | half-life ([1]; male, C57Bl/6, mouse, iv, 2 mg/kg, single-dose 2 mg/kg IV, −ABT, 10% DMSO, 90% PEG400): 486 min | AUC(0-inf) [1, 10]: 21.6 µM·h | clearance ([1]; male, C57Bl/6, mouse, iv, 2 mg/kg, single-dose 2 mg/kg IV, −ABT, read-out: Plasma CL): 4.1 mL/min/kg | Vd [1, 10]: 1.9 L/kg | clearance ([1]; male, C57Bl/6, mouse, iv, observed under both conditions (±ABT), read-out: In vivo systemic clearance): 4.4 mL/min/kg | 4-HPR Concentration (equilibrium solubility) ([2]; in Capmul-MCM-EP, 37 °C): 34 mg/g and 34 ± 4.3 mg/g | 4-HPR Concentration (equilibrium solubility) ([2]; in Capryol 90, 37 °C): 48 ± 6.0 mg/g | 4-HPR Concentration (equilibrium solubility) ([2]; in Captex 355 EP/NF, 37 °C): 14 ± 0.1 mg/g | 4-HPR Concentration (equilibrium solubility) ([2]; in Corn oil, 37 °C): 3.9 ± 0.2 mg/g | 4-HPR Concentration (equilibrium solubility) ([2]; in Cremophor EL, 37 °C): 10 ± 0.2 mg/g | 4-HPR Concentration (equilibrium solubility) ([2]; in Ethanol, 37 °C): 113 mg/g and 113 ± 1.3 mg/g | 4-HPR Concentration (equilibrium solubility) ([2]; in Gelucire 44/14, 37 °C): 6.0 ± 0.2 mg/g | 4-HPR Concentration (equilibrium solubility) ([2]; in Kolliphor RH 40, 37 °C): 5.5 ± 0.6 mg/g | 4-HPR Concentration (equilibrium solubility) ([2]; in Labrasol, 37 °C): 7.3 ± 0.1 mg/g | 4-HPR Concentration (equilibrium solubility) ([2]; in Lauroglycol 90, 37 °C): 39 mg/g and 39 ± 1.4 mg/g | 4-HPR Concentration (equilibrium solubility) ([2]; in Maisine 35-1, 37 °C): 21 ± 7.6 mg/g | 4-HPR Concentration (equilibrium solubility) ([2]; in Maisine CC, 37 °C): 26 ± 1.6 mg/g | 4-HPR Concentration (equilibrium solubility) ([2]; in PEG400, 37 °C): 82 ± 0.7 mg/g | 4-HPR Concentration (equilibrium solubility) ([2]; in Polysorbate 80, 37 °C): 24 ± 4.9 mg/g | 4-HPR Concentration (equilibrium solubility) ([2]; in Soybean Oil, 37 °C): 2.7 ± 0.1 mg/g | 4-HPR Concentration (equilibrium solubility) ([2]; in Transcutol, 37 °C): 217 ± 8.8 mg/g | 4-HPR Concentration (equilibrium solubility) ([2]; in Tween 85, 37 °C): 71 mg/g and 71 ± 9.1 mg/g | % Bound ([3]; human plasma): > 99.95% | Fraction Unbound 4-HPR ([3]; human plasma): < 0.0005 | fraction unbound at 24 h, 2000 ng/mL ([3]; male, C57BL6, mouse plasma diluted to 10% v/v in PBS): < 0.0005 | % Bound ([3]; mouse plasma): > 99.95% | Fraction Unbound 4-HPR ([3]; mouse plasma): < 0.0005 | fraction unbound at 24 h, 2000 ng/mL ([3]; pooled human plasma diluted to 10% v/v in PBS): < 0.0005 | Stability in diluted plasma [4]: no evidence of any degradation | Stability in diluted plasma [5]: no evidence of any degradation | EC50 (DENV [6]; DENV, read-out: In vitro EC50): 1000 to 2000 nM | EC50 (DENV [6]; all four infectious DENV strains in vitro, read-out: EC50): ~1000 nM | Protection of infected mice (DENV [7]): 70% | EC50 (ZIKV): 1000 to 2000 nM | Reduction of DENV2 viremia (DENV2): > 50 fold
